Data on one compound can be found in patent publication EP4211126B1, “PHOTOCHEMICAL SYNTHESIS OF LOW PARTICLE SIZE MONODISPERSE GOLD NANOPARTICLES, LOADING WITH CANCER DRUG, AND DETERMINATION OF CYTOTOXIC ACTIVITY OF THE SAME” (Yildiz Teknik Universitesi, priority 2020, dated 2022).

This data set concerns acute promyelocytic leukemia (HL-60) cells. The data set is described as follows: MTT colorimetric cytotoxicity test. The settings on record: 72 hours of incubation, compared with DOXO in free form. It is filed as cell-based. How it is done: MTT (3- (4,5-dimethylthiazol-2-yl) -2,5-diphenyl-2H-tetrazolium bromide) colorimetric test allows the quantitation of living cells whose mitochondrial activity is maintained in the culture medium. […] P<0.05 was considered significant.
According to MTT experiments, after 72 hours of incubation, the effect of DOXO in free form, i.e., not loaded on AuNps, as well as the DOXO-loaded AuNps was investigated for acute promyelocytic leukemia (HL-60) and chronic myeloid leukemia (K562) cells, and the results are given in Figure 5 and Figure 6, respectively.
In general terms: Tetrazolium dyes change colour on reduction, which living cells bring about.

`COc1cccc2c1C(=O)c1c(O)c3c(c(O)c1C2=O)C[C@@](O)(C(=O)CO)C[C@@H]3O[C@H]1C[C@H](N)[C@H](O)[C@H](C)O1` [DOXO, Doxorubicin]: the “cytotoxic effect (cell viability)” value is “should be used in higher amounts in order to have a similar cytotoxic effect”.
